This note sets out measurements from patent US20180064659A1, “AGENTS USEFUL FOR TREATING OBESITY, DIABETES AND RELATED DISORDERS” (The Regents of the University of California, priority 2015, published 2018).

pEC50: −log10 of the molar value.

Test [1] deals with insulin-dependent activation of Akt in FL83B mouse liver cells. The experiment in a line: Western blot of insulin-dependent phospho-Akt activation in FL83B cells. Type of test: cell-based. The settings on record: for Insulin-dependent P-Akt signaling: Western blot. An excerpt: (§1) Western blot protocol of phospho-Akt (columns 2-4) and phospho-Erk (columns5-7). As explained above and in Example 4, Western blots of phospho-Akt and phospho-Erk are a more accurate and precise and quantitative measure of Akt phosphorylation than ICWB measurements. Insulin-dependent phospho-Akt is a direct measurement of insulin sensitivity, and we expect that Shc inhibitors will stimulate phospho-Akt more than phospho-Erk. All of the drugs listed in FIG. 5A stimulated insulin-dependent phospho-Akt at some concentration. Method. Mouse liver cells FL83B were plated at density of 400.000 cells per well of 6 well pate and cultivated for 48 hours, media was changed to DMEM, 25 mM glucose serum free and 16 hours later the cells were treated with drug at the indicated concentration for one hour. Control wells were treated with the vehicle (DMSO), in certain control wells the metabolic (Akt) insulin signaling was blocked with wortmannin. The cells were induced with indicated concentration of insulin for 10 minutes, total protein was extracted and the Western Blots were performed with indicated antibody as described above. […]
Sensogramms were obtained, and response [nm] for each concentration was plotted against log concentration of idebenone. […] Cells were stimulated with 0.2 nM insulin for 10 minutes, and Western analyzed for induction of Akt and ERK. […] Sigmoidal dose-response (variable slope) fitting analysis was performed, EC50, hill slope, and top response were identified, as described above, and are indicated on the graph. p-value was calculated by testing R^2 for significance for N=65. […] For ITT, the food was deprived at 7 am (the beginning of light phase), basal glucose was measured at 11 am, and insulin was administrated at 0.8 U/kg dose; blood glucose was recorded and expressed as % of baseline, and plotted against time. […]

In test [2] the test system is Erk activation in FL83B mouse liver cells. The experiment in a line: Western blot of phospho-Erk activation in FL83B cells. It counts as cell-based.
From the text: as §1
(In general: A western blot detects proteins with antibodies after separation by electrophoresis.)

The test system of a further test is mice. The experiment in a line: Insulin tolerance test (ITT) and basal blood glucose in mice. Type of test: in vivo, mouse. The settings on record: for Insulin sensitivity in vivo (ITT): PO 20 and 50 mg/kg in peanut butter, five days. As to the method: Insulin Tolerance Test (ITT) and Glucose Tolerance Test (GTT) Protocol for FIG. 2C: Groups of age/sex matched mice of Control and ShcKO genotypes were food deprived for four hours and challenged with I.P. injection of insulin, and glucose concentration was determined in blood exactly at indicated time-points. Decrease and recovery of blood glucose was calculated as a % of basal level (the time-point before insulin injection). Basal levels of glucose were measured in triplicate for each mouse. For the GTT, the same groups of mice were fasted during fourteen hours and challenged with glucose injection I.P., analogously the blood glucose concentrations were measured.
In-vivo drugs testing to improve the insulin sensitivity of periphery for FIG. 6D, E: Groups of mice, ten for the experimental drug treatment and 14 for the placebo treatment were subject for I.P. administration of a drug or placebo solutions daily during four days. Acarbose, a known drug which decreases blood glucose concentration was used as a control. The insulin tolerance test, ITT was performed on the mice as described previously, in Example 2.
(§2) Sensogramms were obtained, and response [nm] for each concentration was plotted against log concentration of idebenone. Sigmoidal, variable slope fitting analysis was performed using GraphPad Prism Software (GraphPad Software, Inc., La Jolla, Calif.). […] Cells were stimulated with 0.2 nM insulin for 10 minutes, and Western analyzed for induction of Akt and ERK. Insulin dependent activation of Akt is presented as fold change over vehicle control, and plotted against log concentration of idebenone; tubulin signal was used for normalization between biological samples. Sigmoidal dose-response (variable slope) fitting analysis was performed, EC50, hill slope, and top response were identified, as described above, and are indicated on the graph. p-value was calculated by testing R^2 for significance for N=65. […] Idebenone at indicated dose was given to animals 30 minutes before dark phase for five days. At the day of Insulin Tolerance Test (ITT) additional dose of idebenone was given to animals two hours prior to insulin injection. For ITT, the food was deprived at 7 am (the beginning of light phase), basal glucose was measured at 11 am, and insulin was administrated at 0.8 U/kg dose; blood glucose was recorded and expressed as % of baseline, and plotted against time. […] Software (CambridgeSoft Corporation, Waltham, Mass.), and virtually docked to Shc-PTB using iGEMDOCK software (BioXGEM Lab, National Chiao-Tung University Hsinchu, Taiwan, R.O.C), and, MOL file was generated. Three dimensional structure of PTB domain of Shc was obtained from Protein Data Bank (http://www.rcsb.org/).

The target of another test is T1, Shc-PTB domain (Homo sapiens, UniProt P29353).
T1 sequence (P29353 1-473 isoform P29353-2): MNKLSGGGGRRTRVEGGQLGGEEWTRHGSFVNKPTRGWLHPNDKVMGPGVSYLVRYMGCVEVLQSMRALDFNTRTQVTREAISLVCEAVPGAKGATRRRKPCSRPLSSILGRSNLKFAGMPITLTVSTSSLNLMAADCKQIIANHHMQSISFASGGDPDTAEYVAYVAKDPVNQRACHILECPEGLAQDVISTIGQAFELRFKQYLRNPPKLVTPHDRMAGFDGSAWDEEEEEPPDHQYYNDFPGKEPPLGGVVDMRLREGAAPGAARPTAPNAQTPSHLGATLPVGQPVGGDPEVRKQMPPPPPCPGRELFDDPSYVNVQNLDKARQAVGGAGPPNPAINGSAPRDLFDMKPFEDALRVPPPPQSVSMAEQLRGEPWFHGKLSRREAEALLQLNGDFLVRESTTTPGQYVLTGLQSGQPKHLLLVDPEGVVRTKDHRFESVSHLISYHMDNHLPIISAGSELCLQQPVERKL
Briefly: Octet RED 384 binding to p52Shc protein (p52Shc lacking PTB domain as reference). The settings on record: for pEC50: 10 pM to 100 uM, Octet RED 384. As to the method:
as §2
FIGS. 9A-E illustrate that SrcI-1 binds into PTB domain of Shc protein. […] Sensograms were obtained and shown. […] Sigmoidal, variable slope fitting analysis was performed; EC50, hill slope, and top response were identified, and indicated. p-value was calculated by testing R^2 for significance for N=24; SrcI-1 was binding to Shc-PTB domain with EC50 of 3 μM.
FIGS. 11A-F illustrate details of interaction of idebenone analogs, idebenone and SrcI-1 with Shc protein. […]
(Biolayer interferometry detects binding as a change in optical thickness at a sensor tip.)

With `COc1cc2ncnc(Nc3ccc(Oc4ccccc4)cc3)c2cc1OC` [SrcI-1], the “Insulin-dependent P-Akt signaling” value in test [1] was “stimulates insulin-dependent P-Akt signaling”. In test [2], the Erk activation entry is “decreased Erk activation” and the P-Akt/P-Erk ratio result is given as “increasing the P-Akt/P-Erk ratio”. Moreover, in the test with mice (2.5 mg/kg I.P. for 4 days), the Basal blood glucose entry is “significantly decreased basal blood glucose” and the “Insulin sensitivity in-vivo (ITT)” value is on record as “increased insulin sensitivity in-vivo”. On Shc-PTB domain (24 point titration), the pEC50 is 5.52. Also, the “Binding to Shc-PTB” value at Shc-PTB domain (Octet RED 384 sensograms) is given as “binding to Shc-PTB in dose-dependent fashion”.

Regarding `COC1=C(OC)C(=O)C(CCCCCCCCCCO)=C(C)C1=O` [idebenone], the negative logarithm of the EC50 (pEC50) in test [1] (Mus musculus, drug 1 hour, 0.2 nM insulin for 10 minutes, 65 points, read-out: EC50 of sensitizing cells to insulin (insulin dependent activation of Akt)) was 8.48; at Shc-PTB domain (48 point titration) it was 8.92. Besides, the “Insulin-dependent P-Akt signaling” value in test [1] is recorded as “increased insulin-dependent phospho-Akt activation in a dose-dependent manner”. For the same molecule, the “Insulin sensitivity in vivo (ITT)” value in the test with mice was “increased insulin sensitivity in vivo”; in the test on mice (listed as Idebenone), “significantly improving insulin sensitivity in-vivo”.

As usually defined, the pEC50 is the EC50 on a negative log10 scale, so that one unit is a factor of ten.
